Laboratory results: patent US20130012473A1, “COMBINED USE OF PHOSPHOLIPID AND SULFATE GROUPS-CARRYING POLYSACCHARIDES FOR INHIBITING METASTATIC SPREAD” (KTB TUMORFORSCHUNGSGESELLSCHAFT MBH, priority 2010, published 2013)

Legend:
Format in all cases: cell-based, mouse
[1] = system: VCAM-1 Fc chimera; test: Flow cytometry, binding of soluble VCAM-1 Fc chimera; conditions: repeatedly incubated with 450 μM LysoPC for 13 days
Description: (§1) FIG. 3: Impact of exogenous LysoPC on the surface expression of VLA-4 or VCAM-1- and P-selectin-ligands. (A) Surface expression of VLA-4 on B16.F10 cells treated with 450 μM LysoPC for 13 days was controlled by flow cytometric analysis. […] FACS histograms (A-C) show one representative of three independent experiments. In all experiments cells only incubated with the respective FITC-conjugated detection antibody served as control.

[2] = system: P-selectin ligands; test: Flow cytometry, binding of soluble P-selectin Fc chimera; conditions: 450 μM LysoPC treated cells vs control cells
Description: as §1

[3] = system: B16.F10 cells; test: SACED cell migration assay on fibronectin; conditions: 450 μM LysoPC, fibronectin layers
Description: Quantification of cell motility: Cell migration of B16.F10 cells cultivated on fibronectin (Sigma-Aldrich Chemie) covered dishes was determined with or without LysoPC. […] (Nikon, Dusseldorf, Germany) and an incubation chamber for constant temperature, applying NIS Elements AR 2.30 software and a camera (COOL-1300I; Vosskuhler GmbH, Germany)
Lamella dynamics and cell migration velocity were analyzed by the computer-assisted stroboscopic analysis of cell dynamics (SACED). At least 15 individual cells, incubated with or without LysoPC, were monitored over a period of 10 min by capturing digital images every 2 s. Subsequently, eight areas of interest were marked on each image by lines that crossed the cell lamella. The resulting 1 pixel wide areas were cut and lined up in time space plots that allowed the quantification of relevant motility data (Hinz, B. et al., Exp. Cell. Res. 251:234-243 (1999)).

[4] = system: B16.F10 melanoma cells; test: Removal of exogenous LysoPC from the medium (PC/LysoPC and free choline assays); conditions: in absence of the cells
Excerpt: Cell culture and LysoPC feeding: Mouse melanoma cell line B16.F10 (ATCC, CRL-6475) was passaged in vitro in DMEM as described before (Fritzsche, J. et al., Thromb. Haemost. 100:1166-1175 (2008)). Cells were routinely (monthly) tested to be negative of mycoplasms, their morphological appearance observed by microscopic means and examined for the expression of adhesion receptors and ligands by flow cytometry. LysoPC removal (1-Heptadecanoyl-2-hydroxy-sn-glycero-3-phosphocholine, (C17:0; HEP-LysoPC), Avanti Polar Lipids, Inc., or 1-Hexadecanoyl-sn-glycero-3-phosphocholine, (C16:0; HEX-LysoPC), Sigma, Taufkirchen, Germany was determined using 1×10^5 cells in 24-well tissue culture plates (Greiner BioOne, Frickenhausen, Germany). Non-cytotoxic LysoPC/BSA DMEM-solutions (FIG. 7 A) were prepared by adding 20-40 mg/ml bovine serum albumine (BSA, PAA Laboratories GmbH, Cölbe, Germany). Cell culture supernatants were collected from triplicates of LysoPC treated and untreated control wells. Cells were removed from tissue culture plates using trypsin/EDTA. […]
Determination of LysoPC concentration: LysoPC concentration was determined by an enzymatic PL (PC/LysoPC) assay containing phospholipase D and choline oxidase (mti diagnostics GmbH, Idstein, Germany). […]
B, C and D) Colorimetric assays for the quantification of LysoPC removal from the supernatant of B16.F10. […]

[5] = system: P-selectin mediated interaction of B16.F10 cells with activated platelets; test: Binding of calcein-labeled TRAP-14 activated platelets to B16.F10 cells; conditions: cells treated with 450 μM LysoPC for 48 h
Description: Platelet isolation: Platelets from blood of healthy volunteers were separated, routinely tested for viability, and activated by TRAP-14 (Bachem GmbH, Weil am Rhein, Germany) as recently described (Fritzsche, J. et al., Thromb. Haemost. 100:1166-1175 (2008)). Isolated platelets were stored at 37° C. in a water bath.
B) Binding of calcein-labeled TRAP-14 activated platelets to B16.F10 cells treated with 450 μM LysoPC for 48 h was analyzed by fluorescence microscopy. […] Data represent means±SD from three independent experiments. P, resting platelets; aP, activated platelets; LysoPC, LysoPC treated B16.F10 cells; Ab, Ig-matched control antibody.

CCCCCCCCCCCCCCCCC(=O)OC[C@@H](O)COP(=O)([O-])OCC[N+](C)(C)C [LysoPC]
functionality of VLA-4 to interact with soluble VCAM-1-Fc chimera [1]: only slightly impaired
expression of P-selectin ligands (P-selectin-Fc chimera binding) [2]: remained unchanged
lamellipodia dynamics (frequencies of protrusion and retraction) [3]: attenuated dynamics (p<0.05) of lamellipodia protrusion and retraction
lamellipodia retraction velocity ([3]; p<0.05): slower lamellipodia retraction velocity
LysoPC concentration in culture medium [4]: not changed in absence of the cells
interaction of B16.F10 cells with activated platelets [5]: significantly (p<0.001) reduced P-selectin mediated interaction with activated platelets to the level of resting cells
